{"source": "patent US11939320B2", "about": "“Modulators of the integrated stress pathway” (Calico Life Sciences LLC, priority 2017, dated 2024)"}
{"system": "HEK293T cells carrying the ATF4 luciferase reporter", "test": "ATF4-Luc assay (in vitro model of VWMD)", "format": "cell-based", "details": "Homo sapiens, HEK-293T; HEK293T cells with ATF4 5'-UTR firefly luciferase reporter; 1 μg/mL tunicamycin; 7 hours; One Glo luminescence", "method": "In order to test exemplary compounds of the invention in a cellular context, a stable VWMD cell line was first constructed. The ATF4 reporter was prepared by fusing the human full-length ATF4 5′-UTR (NCBI Accession No. BC022088.2) in front of the firefly luciferase (FLuc) coding sequence lacking the initiator methionine as described in Sidrauski et al (eLife 2013). The construct was used to produce recombinant retroviruses using standard methods and the resulting viral supernatant was used to transduce HEK293T cells, which were then subsequently selected with puromycin to generate a stable cell line.\nHEK293T cells carrying the ATF4 luciferase reporter were plated on polylysine coated 384-well plates (Greiner Bio-one) at 30,000 cells per well. Cells were treated the next day with 1 μg/mL tunicamycin and 200 nM of a compound of Formula (I) for 7 hours. Luminescence was measured using One Glo (Promega) as specified by the manufacturer. Cells were maintained in DMEM with L-glutamine supplemented with 10% heat-inactivated FBS (Gibco) and Antibiotic-Antimycotic solution (Gibco).\nTable 2 below summarizes the EC50 data obtained using the ATF4-Luc assay for exemplary compounds of the invention.", "units": {"EC50": "nM"}}
{"compound": "O=C(COc1ccc(Cl)c(F)c1)N[C@@H]1CC[C@H](C(=O)NCc2ccc(C(F)(F)F)cn2)OC1", "note": "(single isomer, unassigned) [Compound 163]", "EC50": "> 2000"}
{"compound": "O=C(COc1ccc(Cl)c(F)c1)N[C@H]1CC[C@H](C(=O)N2CCN(c3ccc(Cl)cc3)CC2)CC1", "note": "[Compound 127, 2-(4-chloro-3-fluorophenoxy)-N-{(1r,4r)-4-[4-(4-chlorophenyl)piperazine-1-carbonyl]cyclohexyl}acetamide]", "EC50": "> 2000"}
{"compound": "N#Cc1ccc(CNC(=O)[C@H]2CC[C@H](NC(=O)COc3ccc(Cl)c(Cl)c3)CC2)nc1", "note": "[Compound 173, (1r,4r)-N-[(5-cyanopyridin-2-yl)methyl]-4-[2-(3,4-dichlorophenoxy)acetamido]cyclohexane-1-carboxamide]", "EC50": "50 to 250"}
{"compound": "O=C(COc1ccc(Cl)c(F)c1)N[C@H]1C[C@H](C(=O)NCc2ccc(Cl)cc2)C1", "note": "[Compound 169, (1r,3r)-3-[2-(4-chloro-3-fluorophenoxy)acetamido]-N-[(4-chlorophenyl)methyl]cyclobutane-1-carboxamide]", "EC50": "> 2000"}
{"compound": "O=C(COc1ccc(Cl)c(Cl)c1)N[C@H]1CC[C@H](C(=O)N(CCO)Cc2ccc(Cl)c(F)c2)CC1", "note": "[Compound 180, (1r,4r)-N-[(4-chloro-3-fluorophenyl)methyl]-4-[2-(3,4-dichlorophenoxy)acetamido]-N-(2-hydroxyethyl)cyclohexane-1-carboxamide]", "EC50": "500 to 2000"}
{"compound": "NC(=O)c1ccc(CNC(=O)[C@H]2CC[C@H](NC(=O)COc3ccc(Cl)c(F)c3)CC2)nc1", "note": "[Compound 172, 6-[({(1r,4r)-4-[2-(4-chloro-3-fluorophenoxy)acetamido]cyclohexane-1-carbonyl}amino)methyl]pyridine-3-carboxamide]", "EC50": "> 2000"}
{"compound": "O=C(COc1ccc(Cl)c(F)c1)N[C@H]1CC[C@H](C(=O)Nc2ccc(OC(F)(F)F)cn2)CC1", "note": "[Compound 110, (1r,4r)-4-[2-(4-chloro-3-fluorophenoxy)acetamido]-N-[5-(trifluoromethoxy)pyridin-2-yl]cyclohexane-1-carboxamide]", "EC50": "10 to 50"}
{"compound": "O=C(COc1ccc(Cl)c(Cl)c1)N[C@H]1CC[C@H](C(=O)NCc2ccc(C(F)(F)F)cn2)CC1", "note": "[Compound 183, (1r,4r)-4-[2-(3,4-dichlorophenoxy)acetamido]-N-{[5-(trifluoromethyl)pyridin-2-yl]methyl}cyclohexane-1-carboxamide]", "EC50": "< 10"}
{"compound": "O=C(COc1ccc(Cl)c(F)c1)N[C@@H]1CC[C@@H](C(=O)NCc2ccc3c(c2)OC(F)(F)O3)OC1", "note": "[Compound 167, (2S,5R)-5-[2-(4-chloro-3-fluorophenoxy)acetamido]-N-[(2,2-difluoro-2H-1,3-benzodioxol-5-yl)methyl]oxane-2-carboxamide]", "EC50": "50 to 250"}
{"compound": "O=C(COc1ccc(Cl)c(Cl)c1)N[C@H]1CC[C@H](C(=O)NCc2ccc(C(F)F)cn2)CC1", "note": "[Compound 184, (1r,4r)-4-[2-(3,4-dichlorophenoxy)acetamido]-N-{[5-(difluoromethyl)pyridin-2-yl]methyl}cyclohexane-1-carboxamide]", "EC50": "10 to 50"}
{"compound": "O=C(COc1ccc(Cl)c(F)c1)N[C@H]1CC[C@H](C(=O)Nc2ccc(Cl)c(F)c2)CC1", "note": "[Compound 111, (1r,4r)-4-[2-(4-chloro-3-fluorophenoxy)acetamido]-N-(4-chloro-3-fluorophenyl)cyclohexane-1-carboxamide]", "EC50": "10 to 50"}
{"compound": "O=C(COc1ccc(Cl)c(F)c1)N[C@@H]1CC[C@@H](C(=O)NCc2ccc(Cl)c(F)c2)OC1", "note": "[Compound 185, (2S,5R)-5-[2-(4-chloro-3-fluorophenoxy)acetamido]-N-[(4-chloro-3-fluorophenyl)methyl]oxane-2-carboxamide]", "EC50": "10 to 50"}
{"compound": "O=C(COc1ccc(Cl)c(F)c1)N[C@H]1CC[C@H](C(=O)N2CCN(c3cccc(Cl)c3)C(=O)C2)CC1", "note": "[Compound 126, 2-(4-chloro-3-fluorophenoxy)-N-{(1r,4r)-4-[4-(3-chlorophenyl)-3-oxopiperazine-1-carbonyl]cyclohexyl}acetamide]", "EC50": "500 to 2000"}
{"compound": "O=C(COc1ccc(Cl)c(F)c1)N[C@H]1CC[C@H](C(=O)N2CCC[C@@H]2c2cc(F)ccc2F)CC1", "note": "[Compound 113, 2-(4-chloro-3-fluorophenoxy)-N-{(1R,4r)-4-[(2R)-2-(2,5-difluorophenyl)pyrrolidine-1-carbonyl]cyclohexyl}acetamide]", "EC50": "> 2000"}
{"compound": "COc1ncc(CNC(=O)[C@@H]2CC[C@@H](NC(=O)COc3ccc(Cl)c(F)c3)CO2)cn1", "note": "[Compound 140, (2S,5R)-5-[2-(4-chloro-3-fluorophenoxy)acetamido]-N-[(2-methoxypyrimidin-5-yl)methyl]oxane-2-carboxamide]", "EC50": "> 2000"}
{"compound": "O=C(COc1ccc(Cl)c(F)c1)N[C@H]1CC[C@@H](C(=O)NCc2ccc(C(F)(F)F)cn2)OC1", "note": "(single isomer, unassigned) [Compound 162]", "EC50": "> 2000"}
{"compound": "O=C(COc1ccc(Cl)c(Cl)c1)N[C@H]1CC[C@H](C(=O)NCc2ccc(C(F)(F)F)nc2)CC1", "note": "[Compound 100, (1r,4r)-4-[2-(3,4-dichlorophenoxy)acetamido]-N-{[6-(trifluoromethyl)pyridin-3-yl]methyl}cyclohexane-1-carboxamide]", "EC50": "10 to 50"}
{"compound": "O=C(COc1ccc(Cl)c(F)c1)N[C@H]1CC[C@H](C(=O)Nc2ccc(OC(F)F)nc2)CC1", "note": "[Compound 109, (1r,4r)-4-[2-(4-chloro-3-fluorophenoxy)acetamido]-N-[6-(difluoromethoxy)pyridin-3-yl]cyclohexane-1-carboxamide]", "EC50": "< 10"}
{"compound": "O=C(NCc1ccc(C(F)(F)F)cn1)[C@@H]1CC[C@@H](NC(=O)[C@@H]2CNc3cc(Cl)ccc3O2)CO1", "note": "(single isomer, unassigned) [Compound 161]", "EC50": "250 to 500"}
{"compound": "O=C(COc1ccc(Cl)c(Cl)c1)N[C@H]1CC[C@H](C(=O)NCc2cc(CO)ccn2)CC1", "note": "[Compound 182, (1r,4r)-4-[2-(3,4-dichlorophenoxy)acetamido]-N-{[4-(hydroxymethyl)pyridin-2-yl]methyl}cyclohexane-1-carboxamide]", "EC50": "> 2000"}
{"compound": "O=C(COc1ccc(Cl)c(F)c1)N[C@H]1CC[C@H](C(=O)NCc2ccc(Cl)cn2)CC1", "note": "[Compound 176, (1r,4r)-4-[2-(4-chloro-3-fluorophenoxy)acetamido]-N-[(5-chloropyridin-2-yl)methyl]cyclohexane-1-carboxamide]", "EC50": "> 2000"}
{"compound": "O=C(COc1ccc(Cl)c(F)c1)N[C@H]1CC[C@H](C(=O)NCc2ccc(C(F)(F)F)cn2)CC1", "note": "[Compound 119, (1r,4r)-4-[2-(4-chloro-3-fluorophenoxy)acetamido]-N-{[5-(trifluoromethyl)pyridin-2-yl]methyl}cyclohexane-1-carboxamide]", "EC50": "< 10"}
{"compound": "O=C(COc1ccc(Cl)c(F)c1)N[C@@H]1CC[C@@H](C(=O)NCc2cn3ccc(Cl)cc3n2)OC1", "note": "[Compound 138, (2S,5R)-5-[2-(4-chloro-3-fluorophenoxy)acetamido]-N-[(7-chloroimidazo[1,2-a]pyridin-2-yl)methyl]oxane-2-carboxamide]", "EC50": "10 to 50"}
{"compound": "O=C(COc1ccc(Cl)c(F)c1)N[C@@H]1CC[C@@H](C(=O)NCc2ccc(OC(F)(F)F)cc2)OC1", "note": "[Compound 157, (2S,5R)-5-[2-(4-chloro-3-fluorophenoxy)acetamido]-N-{[4-(trifluoromethoxy)phenyl]methyl}oxane-2-carboxamide]", "EC50": "50 to 250"}
{"compound": "O=C(COc1ccc(Cl)c(F)c1)N[C@H]1CC[C@H](C(=O)NCc2ccc(OC(F)F)nc2)CC1", "note": "[Compound 116, (1r,4r)-4-[2-(4-chloro-3-fluorophenoxy)acetamido]-N-{[6-(difluoromethoxy)pyridin-3-yl]methyl}cyclohexane-1-carboxamide]", "EC50": "50 to 250"}
{"compound": "O=C(COc1ccc(Cl)c(F)c1)N[C@H]1C[C@H](C(=O)NCc2ccc(C(F)(F)F)cn2)C1", "note": "[Compound 122, (1r,3r)-3-[2-(4-chloro-3-fluorophenoxy)acetamido]-N-{[5-(trifluoromethyl)pyridin-2-yl]methyl}cyclobutane-1-carboxamide]", "EC50": "500 to 2000"}
{"compound": "O=C(COc1ccc(Cl)c(Cl)c1)N[C@H]1CC[C@H](C(=O)Nc2ccc(OC(F)F)nc2)CC1", "note": "[Compound 102, (1r,4r)-4-[2-(3,4-dichlorophenoxy)acetamido]-N-[6-(difluoromethoxy)pyridin-3-yl]cyclohexane-1-carboxamide]", "EC50": "< 10"}
{"compound": "O=C(COc1ccc(Cl)c(F)c1)N[C@H]1CC[C@H](C(=O)N2CC(O)(c3ccc(Cl)cc3)C2)CC1", "note": "[Compound 130, 2-(4-chloro-3-fluorophenoxy)-N-{(1r,4r)-4-[3-(4-chlorophenyl)-3-hydroxyazetidine-1-carbonyl]cyclohexyl}acetamide]", "EC50": "50 to 250"}
{"compound": "O=C(COc1ccc(Cl)c(F)c1)N[C@@H]1CC[C@@H](C(=O)NCc2nc(C(F)(F)F)c[nH]2)OC1", "note": "[Compound 135, (2S,5R)-5-[2-(4-chloro-3-fluorophenoxy)acetamido]-N-{[4-(trifluoromethyl)-1H-imidazol-2-yl]methyl}oxane-2-carboxamide]", "EC50": "50 to 250"}
{"compound": "O=C(COc1ccc2c(c1)OC(F)(F)O2)N[C@H]1CC[C@H](C(=O)NCc2nc3cc(Cl)ccc3[nH]2)CC1", "note": "[Compound 148, (1r,4r)-N-[(5-chloro-1H-benzimidazol-2-yl)methyl]-4-{2-[(2,2-difluoro-2H-1,3-benzodioxol-5-yl)oxy]acetamido}cyclohexane-1-carboxamide]", "EC50": "50 to 250"}
{"compound": "O=C(COc1ccc(Cl)c(F)c1)NC1CCC(C(=O)NCc2ccc(C(F)(F)F)cn2)OC1", "note": "(stereo not shown) [Compound 166, 5-[2-(4-chloro-3-fluorophenoxy)acetamido]-N-{[5-(trifluoromethyl)pyridin-2-yl]methyl}oxane-2-carboxamide]", "EC50": "> 2000"}
